Assay results as given in patent US20250360071A1, “AGENT FOR INDUCING CILIUM” (MED R&D Co. Ltd, priority 2022, published 2025).

How the values were obtained:
HFDPCs = assay: Proliferation of HFDPCs (MTT), Experimental Example 1; type: cell-based, human; conditions: 48 hours, vs untreated cells
Description: The activation effect by a glycoside of an oleanane-type triterpenoid was examined using dermal papilla cells of human hair follicles (HFDPCs) which are mesenchymal cells separated from the papilla of the scalp hair follicle of a normal human. As the glycoside of the oleanane-type triterpenoid (which may hereinafter be referred to as “saponin”), arganine D, arganine E, and butyroside D were used. A high proliferation rate of the HFDPCs is correlated with the acceleration of the hair growth cycle.
First, HFDPCs were seeded in a 96-well plate at […] and incubated at 37° C. in a humidified atmosphere of 5% CO2. As a culture medium, a culture medium for hair papilla cell growth to which growth factors (a bovine fetal serum, an insulin, a transferrin, a triiodothyronine, a bovine pituitary extract, or a cyproterone solution) had been added was used.
After 24 hours, the culture medium was exchanged with a culture medium containing each of various concentrations of each saponin, and the cells were incubated for 48 hours.
Subsequently, the cell proliferation was measured using 3-(4,5-dimethyl-thiazol-2-yl)-2,5-diphenyltetrazolium bromide (MTT). Specifically, an MTT reagent (5 mg/mL) was added to the cells and incubated for 8 hours, then 10% sodium dodecyl sulfate (SDS) was added thereto, and the cells were incubated overnight. Thereafter, the absorbance at 570 nm was measured using a microplate reader, and the cell proliferation was quantified as the proportion (%) of the absorbance to an absorbance of the untreated cells. In addition, the survival rate of cells was also measured by a trypan blue exclusion method.

dorsal skin [1] = assay: Gene ontology (GO), GO enrichment and tissue-specific expression analysis of transcriptome, Experimental Example 7; type: in vivo, mouse; conditions: 20th day
Description: Gene ontology (GO) analysis and GO enrichment analysis were performed based on the results of the transcriptome analysis in Experimental Example 6.
Subsequently, term enrichment analysis of the genes with expression increased specifically with respect to the skin tissue was performed. Using tissue-specific expression analysis (TSEA), genes related to the skin tissue were filtered, and functions that were specifically enriched in the maslinic acid treatment group and the tieghemelin treatment group and were not enriched in the minoxidil treatment group were selected.

C3H male mouse = assay: Hair growth promoting effect in vivo, application to depilated dorsal skin, Experimental Example 5; conditions: 150 μL of 1% applied to dorsal skin every day for 20 days
Description: The oleanane-type triterpenoid was applied to the dorsal skin of a mouse and the hair growth promoting effect was examined. Maslinic acid was used as the oleanane-type triterpenoid. In addition, for comparison, a group in which minoxidil was used and a control group in which only a solvent was applied were prepared.
FIG. 12 is a schematic view showing an experimental schedule. After acclimatization of a C3H male mouse, the dorsal skin was depilated with a shaver and a depilatory cream. Thereafter, 150 μL of 1% minoxidil (n=8), 1% maslinic acid (n=6), or a solvent (n=8) was applied to the mouse in each group every day for 20 days, and the mouse was observed over time.
It is known that the hair cycle of a mouse has three stages of an anagen, a catagen, and a telogen. During the anagen (the 1st day to the 16th day), the hair follicle grows into the deep subcutaneous part. In the catagen (the 17th day to the 19th day), the hair follicle stops growing and regresses to the upper subcutaneous part. In the telogen (the 20th day to the 29th day), the hair shaft is in a state where it can be lost at any time. It is known that the color of the dorsal skin of a mouse changes to pink, gray, and black due to the hair cycle. FIG. 13 is a view showing a change in the color of the dorsal skin of a mouse due to the hair cycle.

dorsal skin [2] = assay: Transcriptome analysis and extended network analysis of dorsal skin, Experimental Examples 6 and 8; type: in vivo, mouse; conditions: 20th day, 1% applied daily; maslinic acid group vs tieghemelin group
Description: A mouse in each group of Experimental Example 5 and a mouse in the group which had been subjected to the same treatment as in Experimental Example 5 using 1% tieghemelin (n=6) were euthanized on the 20th day, and the dorsal skin was collected and subjected to transcriptome analysis.
(§1) Extended network analysis was performed based on the results of the transcriptome analysis in Experimental Example 6. FIGS. 20 to 22 are views showing the results of the extended network analysis. FIG. 20 is an analysis result obtained from a dataset of the minoxidil treatment group, FIG. 21 is an analysis result obtained from a dataset of the maslinic acid treatment group, and FIG. 22 is an analysis result obtained from a dataset of the tieghemelin treatment group. In FIGS. 20 to 22, a white circle indicates a gene with increased expression, and a black circle indicates a gene with decreased expression. In addition, the size of the circle indicates the magnitude of a change in expression level.

Iqcb1 = Iqcb1 expression from transcriptome / extended network analysis, Experimental Example 8; type: in vivo, mouse; conditions: dorsal skin, 20th day, 1% applied daily
Description: as §1
DDX58 is an innate immune receptor that senses viral nucleic acids in the cytoplasm and activates a downstream signal transduction cascade leading to the production of type I interferons or inflammatory cytokines. IQCB1 is a protein known to be involved in formation of cilium.

hair cycle-related genes = assay: Fluctuation in expression of hair cycle-related genes from transcriptome, Experimental Example 9; type: in vivo, mouse; conditions: dorsal skin, 20th day
Description: A fluctuation in expression of the hair cycle-related genes was examined, based on the results of the transcriptome analysis in Experimental Example 6.

dorsal skin [3] = assay: Fluorescence immunostaining of dorsal skin tissue sections, Experimental Example 10; type: in vivo, mouse; conditions: 20th day
Description: A mouse in each group of Experimental Examples 5 and 6 was euthanized on the 20th day, the dorsal skin was collected, and the tissue section was subjected to immunostaining.
FIG. 23 is a photomicrograph showing the results of detecting the expressions of β-catenin and K14 by fluorescence immunostaining. In addition, the nuclei were stained with 4′,6-diamidino-2-phenylindole (DAPI). The β-catenin is a hair growth promoting marker and is also a marker for the start of the anagen. K14 is an epidermal marker and is known to increase with the differentiation of hair follicle stem cells.
FIG. 24 is a photomicrograph showing the results of detecting the expression of VEGF by fluorescence immunostaining. In addition, the nuclei were stained with DAPI. VEGF is known to improve the vascularization of hair follicles, increase the size of hair follicles and hair, and promote the growth and circulation of hair follicles.

HFDPC [4] = assay: Quantitative real-time RT-PCR of hair growth markers in HFDPC, Experimental Example 3; type: cell-based, human; conditions: 48 hours; for expression level of the FGF1 gene in the HFDPC / expression level of the ALPL gene in the HFDPC / expression level of the CTNNB1 gene in HFDPC: vs control
Description: The HFDPC was treated with butyroside D, and then the expression of the hair growth marker was confirmed by quantitative real-time RT-PCR.
As the hair growth markers, a CTNNB1 gene (β-catenin), an ALPL gene (alkaline phosphatase), and an FGF1 gene (fiblobrast growth factor 1) were examined. It is known that the β-catenin induces anagen of the hair cycle and promotes the proliferation of keratinocytes. ALPL is a representative hair growth marker in the hair papilla cells. FGF1 is a marker for morphogenesis of hair follicles.
HFDPCs were seeded in a 6-well plate at 5×10^4 cells/well and incubated at 37° C. for 24 hours. Subsequently, the culture medium was removed and exchanged with a culture medium including 0 (Control), 0.5, 5, and 10 nM of butyroside D. In addition, for comparison, cells treated with a culture medium including minoxidil (0.1 μM), which is an existing pharmaceutical product, were also prepared.
Subsequently, after 48 hours, the cells were washed with cold PBS and a total RNA was extracted using an ISOGEN kit (Nippon Gene Co., Ltd.). Next, the total RNA was quantified using a NanoDrop 2000 spectrophotometer (Thermo Fisher Scientific) and quantitative real-time RT-PCR analysis was performed.
First, using a SuperScript III reverse transcription kit (Thermo Fisher Scientific), a cDNA was synthesized from the extracted total RNA by a cycling protocol of 95° C. for 10 minutes, 40 cycles of 95° C. for 15 seconds, and 60° C. for 1 minute.
Subsequently, a real-time PCR was performed using a 7500 Fast Real-Time PCR system (Software 1.3.1, Thermo Fisher Scientific) and TaqMan probes specific for CTNNB1, ALPL, and FGF1. GAPDH was used as an endogenous control and the relative mRNA amount was calculated by applying a 2^−ΔΔCt method by comparison with GAPDH.

HFDPC [5] = assay: as above; type: cell-based, human; conditions: vs 0.1 M minoxidil (so in the source), 48 hours
[6] = fluorescence immunostaining, dorsal skin

C[C@@H]1O[C@@H](O[C@H]2[C@H](OC(=O)[C@]34CCC(C)(C)C[C@H]3C3=CC[C@@H]5[C@@]6(C)C[C@H](O)[C@H](O[C@@H]7O[C@H](CO[C@@H]8O[C@H](CO)[C@@H](O)[C@H](O)[C@H]8O)[C@@H](O)[C@H](O)[C@H]7O)[C@@](C)(CO)[C@@H]6[C@H](O)C[C@@]5(C)[C@]3(C)CC4)OC[C@@H](O)[C@@H]2O)[C@H](O)[C@H](O)[C@H]1O[C@@H]1OC[C@@H](O)[C@H](O[C@@H]2OC[C@](O)(CO)[C@H]2O)[C@H]1O [arganine E]
proliferation of HFDPCs (HFDPCs; 2 μM): significantly promotes the proliferation

Nc1cc(N2CCCCC2)nc(N)[n+]1[O-] [minoxidil, reference compound]
number of genes with decreased expression common among the minoxidil, maslinic acid and tieghemelin treatment groups (dorsal skin [1]): 316
number of genes with increased expression common among the minoxidil, maslinic acid and tieghemelin treatment groups (dorsal skin [1]): 342
influence on the body weight of the mouse (C3H male mouse): No influence on the body weight

C[C@@H]1O[C@@H](O[C@@H]2[C@@H](O)[C@H](O[C@@H]3[C@@H](O)[C@@H](O)[C@H](O[C@H]4[C@H](OC(=O)[C@]56CCC(C)(C)C[C@H]5C5=CC[C@@H]7[C@@]8(C)C[C@H](O)[C@H](O[C@@H]9O[C@H](C(=O)O)[C@@H](O)[C@H](O)[C@H]9O)[C@@](C)(CO)[C@@H]8[C@H](O)C[C@@]7(C)[C@]5(C)C[C@H]6O)OC[C@H](O)[C@@H]4O)O[C@H]3C)OC[C@H]2O)[C@H](O)[C@H](O)[C@H]1O [tieghemelin]
pattern of differentially expressed genes in the dorsal skins (dorsal skin [2]): showed the same pattern
number of genes with decreased expression common among the minoxidil, maslinic acid and tieghemelin treatment groups (dorsal skin [1]): 316
number of genes with decreased expression common between the minoxidil and tieghemelin treatment groups (dorsal skin [1]): Ninety-four
number of genes with increased expression common among the minoxidil, maslinic acid and tieghemelin treatment groups (dorsal skin [1]): 342
number of genes with increased expression common between the minoxidil and tieghemelin treatment groups (dorsal skin [1]): One-hundred-twenty-eight
functions specifically enriched among skin-tissue genes with increased expression (TSEA) (dorsal skin [1]; functions not enriched in the minoxidil treatment group): the proliferation of keratinocytes and epithelial cells, the control of the MAPK cascade, the intercellular adhesion, and the activation of the cytokine receptor interaction
Iqcb1 expression (Iqcb1): upregulated
expression level of Iqcb1 compared with the minoxidil treatment group (Iqcb1): increased more
expression level of Aepb1 (hair cycle-related genes): decreased
expression level of KRT15 (hair cycle-related genes): decreased
expression of NF-κB (hair cycle-related genes): decreased
stage of the hair follicle from its shape (dorsal skin [3]; dorsal skin section): anagen (II)
expression of K14 (dorsal skin [3]; [6]): highly expressed
expression of VEGF (dorsal skin [3]; [6]): highly expressed
expression of β-catenin (dorsal skin [3]; [6]): highly expressed

arganine D
proliferation of HFDPCs (HFDPCs; 2 μM): significantly promotes the proliferation
proliferation of HFDPCs (HFDPCs; 5 μM): significantly promotes the proliferation
proliferation of HFDPCs (HFDPCs; 10 μM): significantly promotes the proliferation

butyroside D
expression level of the FGF1 gene in the HFDPC (HFDPC [4]; 0.5 nM): significantly increased
expression level of the ALPL gene in the HFDPC (HFDPC [4]; 5 nM): significantly increased
expression level of the CTNNB1 gene in HFDPC (HFDPC [4]; 5 nM): significantly increased
expression level of the FGF1 gene in the HFDPC (HFDPC [4]; 5 nM): significantly increased
expression level of the ALPL gene in the HFDPC (HFDPC [4]; 10 nM): significantly increased
expression level of the CTNNB1 gene in HFDPC (HFDPC [4]; 10 nM): significantly increased
expression level of the FGF1 gene in the HFDPC (HFDPC [4]; 10 nM): significantly increased
effect of increasing the expression level of the ALPL gene compared with minoxidil positive control (sentence in the FGF1 paragraph) (HFDPC [4]; vs 0.1 μM minoxidil): more than the effect of the treatment with 0.1 μM minoxidil
proliferation of HFDPCs (HFDPCs; 2 μM): significantly promotes the proliferation
proliferation of HFDPCs (HFDPCs; 5 μM): significantly promotes the proliferation
proliferation of HFDPCs (HFDPCs; 10 μM): significantly promotes the proliferation
effect of increasing the expression level of the ALPL gene compared with minoxidil positive control (HFDPC [5]): more than the effect of the treatment with 0.1 M minoxidil
effect of increasing the expression level of the CTNNB1 gene compared with minoxidil positive control (HFDPC [5]): more than the effect of the treatment with 0.1 M minoxidil
